Key:
[1] = tested on: surface GluR1 / surface LFC-NPR; assay: Cell surface biotinylation of cultured cortical neurons; assay type: cell-based; conditions: for surface LFC-NPR: cultured cortical neurons after DHPG treatment
Procedure: Cell Surface Biotinylation. Surface biotinylation of GluR1 at the plasma membrane was described previously (Snyder et al., Nat Neurosci 4:1079-85, 2001) with some modifications. Cultured cortical neurons were treated with DHPG for 5 minutes. Medium was then replaced with previously cultured medium. After 45 minutes, neurons were cooled on ice and washed with cold PBS containing 1 mM CaCl2 and 0.5 mM MgCl2 (PBS++). Cell surface proteins were labeled with cell-impermeable EZ-Link Sulfo-NHS-SS-Biotin (sulfosuccinimidyl-2-(biotinamido)ethyl-1,3-dithiopropionate; Pierce) in PBS^++ (1 mg/mL) at 4° C. for 30 min. Unreacted biotin was quenched by washing cells with cold 100 mM Glycine (pH 7.4). Cultures were lysed using RIPA buffer and homogenates were centrifuged at 13, 200 rpm to remove debris. 10% of the homogenates were used for total protein. 90% of the remaining homogenates were incubated with immobilized NeutrAvidin beads (Pierce). After washing with RIPA buffer, bound proteins were eluted with 2× Laemmli sample buffer supplemented with 2% β-ME. The eluted proteins were subjected to SDS-PAGE and Western blotting followed by ECL (Amersham Biosciences) and exposure to autoradiography film. Primary antibody concentrations were as follows: GluR1N at 0.12 μg/mL and β-actin at 1:1000. Quantification performed on digital images scanned from exposure matched autoradiographs. Densitometric analysis of these digital images was performed using ImageJ software (Version 1.33, National Institutes of Health). Significance was determined by paired Student's T-test.

[2] = tested on: LFC-NPR (TACE cleavage of NPR); assay: Western blot of LFC-NPR in lysates of cultured cortical neurons after DHPG; assay type: cell-based
Procedure: Cell Culture, Transfection, Western Blot Analysis, and Co-immunoprecipitation analysis. HEK293T and […] (ATCC, Manassas, Va.) cell maintenance and transfection methods have been described previously (Xu et al., supra). Preparation and transfection of cultured hippocampal neurons were described previously (Rumbaugh et al., J Neurosci 23:4567-76, 2003). Western blot analysis of homogenates of HEK293T cells, cultured neurons, and brain extracts was performed as described previously (Xu et al., supra). Co-IP analysis to measure interaction between NPR and AMPAR was performed as described (Xu et al., supra).
Ab LFC-NPR was used to examine the possibility that mGluR1/5 might regulate cleavage of NPR. mGluR1/5 activates PKC via phospholipase C and the production of diacylglycerol (DAG) and inositol triphosphate (IP3) that releases intracellular Ca^2+. […] Ab LFC-NPR detected a ˜60 kDa band from lysates that increased in intensity (expressed as a percent control) over time after stimulation with DHPG. No specific band was detected in the medium by Ab LFC-NPR or other NPR Abs. Absence of LFC-NPR in the medium of neurons was consistent with the observation that both Narp and NP1 were absent from medium even though they are secreted proteins detected on the cell surface using live labeling methods. […]

[3] = tested on: Schaffer collateral-CA1 synapse; assay: mGluR1/5-dependent LTD in hippocampal slices (field EPSP recording); assay type: cell-based, mouse; conditions: for fEPSP slope after DHPG-induced LTD: control mouse slices, t=75 min, DHPG 50 μM for 5 min, TAPI-2 50 μM for 20 min starting 15 min before DHPG
Procedure: mGluR1/5-dependent LTD in hippocampus. Hippocampal slices from postnatal day 21 to 28 mice were prepared as previously described (Huber et al., Science 288:1254-[…]). […] Transverse slices (400 μm thick) were cut on a Vibratome 3000 (The Vibratome company). Slices were transferred to a reservoir chamber filled with a normal aCSF which comprised (in mM): 124 mM NaCl, 2.5 mM KCl, 1.3 mM MgCl2, 2.5 mM CaCl2, 1 mM NaH2PO4, 26.2 mM NaHCO3, and 20 D-glucose. Slices were allowed to recover for 2-6 hr at room temperature (22-24° C.). For recording, slices were transferred to an interface type chamber, maintained at 32° C. for 1 hr, and perfused continuously with aCSF at a rate of 2.5 mL/min. Standard methods were used to record field EPSPs (fEPSPs) from the stratum radiatum in response to stimulation of the Schaffer collateral-commissural pathway with a concentric bipolar tungsten electrode (FHC, Bowdoin, Me.). The stimulus intensity was adjusted to elicit 50-60% of the maximal response. Evoked responses were stored on-line and analyzed off-line using Clampfit (Ver. 9.2). […] The strength of the synaptic response was measured as the fEPFP slope. […] LTD was expressed as percentage of the fEPSP slope during the baseline recording. All data shown for the time course are mean±SEM.

[4] = TAPI-2 = pretreatment before DHPG
[5] = cultured cortical neurons, 45 min after DHPG treatment, TAPI-2 = pretreatment before DHPG

Compound: N[C@H](C(=O)O)c1cc(O)cc(O)c1 [DHPG, (S)-3,5-dihydroxyphenylglycine]
- surface LFC-NPR [1, 4]: 84.3±7.2 % of vehicle control
- surface GluR1 [1, 5]: 74.1±2.2 % of vehicle control
- surface GluR1 ([1]; neurons cultured from NP TKO mouse cortex, after DHPG): 98.4±9.7 % of vehicle control
- surface GluR1 ([1]; neurons cultured from control mouse cortex, 45 min after DHPG): 46.3±8.3 % of vehicle control
- increase of LFC-NPR levels in lysates ([2]; 90 minutes after stimulation with 50 μM DHPG for 5 minutes, cultured cortical neurons ~DIV 14): 60.7%±2.5%
- fEPSP slope after DHPG-induced LTD [3]: 74.0±3.3 % of baseline
- DHPG-induced LTD (fEPSP slope) ([3]; slices from NP TKO mice, n=9): 85.9±4.1%
- DHPG-induced LTD (fEPSP slope) ([3]; slices from NPR KO mice, n=7): 96.3±2.5%
- DHPG-induced LTD (fEPSP slope) ([3]; slices from wild-type mice, n=13): 68.6±3.7%

Compound: CC(C)C[C@H](CC(=O)NO)C(=O)N[C@H](C(=O)N[C@@H](C)C(=O)NCCN)C(C)(C)C [TAPI-2]
- surface LFC-NPR [1, 4]: 108.9±16.0 % of vehicle control
- surface GluR1 [1, 5]: 102.4±4.9 % of vehicle control
- DHPG-stimulated increase in LFC-NPR ([2]; pretreatment of cultured neurons with TAPI-2): blocked
- initial, phasic EPSP depression during DHPG treatment ([3]; TAPI-2 50 μM): no effect
- basal fEPSP slope or probability of release as indexed by paired pulse ratio (PPR) ([3]; TAPI-2 50 μM for 20 min): did not alter
- fEPSP slope after DHPG-induced LTD [3]: 93.8±2.5 % of baseline
- PP-1 Hz induced LTD (fEPSP slope) ([3]; control slices pretreated with TAPI-2 50 μM, t=50 min, n=4): 101.8±5.6 % of baseline

Reference: patent publication US20090123940A1, “MOLECULES INVOLVED IN SYNAPTOGENESIS AND USES THEREFOR” (THE JOHNS HOPKINS UNIVERSITY, priority 2007, published 2009)
